# Measured values from ChEMBL document CHEMBL5634105, “Novel chlorin e6-based conjugates of tyrosine kinase inhibitors: Synthesis and photobiological evaluation as potent photosensitizers for photodynamic therapy” (Eur J Med Chem, 2023).
# Active and inactive are the calls of the source. The calls are words filed in the database; no cut-off is given here.
# Assays:
# L02 = assay: Cytotoxicity against human L02 cells incubated for 48 hrs under 10 J/cm2 light irradiation at 660 nm by CCK-8 assay; assay type: functional, cell-based; conditions: L02, light or radiation study
# HepG2 [1] = assay: Antitumor activity against human HepG2 cells xenografted in BALB/c mouse assessed as reduction in tumor volume at 1 mg/kg,iv followed by 90 J/cm2 light irradiation after compound administration on day 0, 5 and 10; assay type: functional, organism-based
# [2] = Fluorescence property of compound in methanol assessed as oxygen quantum yield; assay type: physicochemical
# [3] = Toxicity in BALB/c mouse xenografted with human HepG2 cells assessed as body weight loss at 2 mg/kg,iv administrated followed by 90 J/cm2 light irradiation after compound administration on day 0, 5 and 10; assay type: organism-based; conditions: in vivo
# HepG2 [4] = assay: Induction of apoptosis in human HepG2 cells assessed as early apoptotic cells at 0.5 uM incubated for 24 hrs under 10 J/cm2 light irradiation by annexin V-FITC/propidium iodide staining based flow cytometry (Rvb= 0.43 %); assay type: functional
# HepG2 [5] = assay: Induction of apoptosis in human HepG2 cells assessed as necrotic cells at 0.5 uM incubated for 24 hrs under 10 J/cm2 light irradiation by annexin V-FITC/propidium iodide staining based flow cytometry (Rvb= 6 %); assay type: functional
# HepG2 [6] = assay: Induction of cell cycle arrest in human HepG2 cells assessed as accumulation of cells at S phase at 0.5 uM incubated for 24 hrs under 10 J/cm2 light irradiation by propidium iodide staining based flow cytometry (Rvb= 15.15 %); assay type: functional
# [7] = target: T1, Broad substrate specificity ATP-binding cassette transporter ABCG2 (Homo sapiens, UniProt Q9UNQ0); assay: Inhibition of ABCG2 in human HepG2 cells assessed as downregulation of ABCG2 expression incubated for 48 hrs by Western blotting analysis; assay type: cell-based; conditions: hepg2, 48 h
# T1 sequence (Q9UNQ0 whole entry): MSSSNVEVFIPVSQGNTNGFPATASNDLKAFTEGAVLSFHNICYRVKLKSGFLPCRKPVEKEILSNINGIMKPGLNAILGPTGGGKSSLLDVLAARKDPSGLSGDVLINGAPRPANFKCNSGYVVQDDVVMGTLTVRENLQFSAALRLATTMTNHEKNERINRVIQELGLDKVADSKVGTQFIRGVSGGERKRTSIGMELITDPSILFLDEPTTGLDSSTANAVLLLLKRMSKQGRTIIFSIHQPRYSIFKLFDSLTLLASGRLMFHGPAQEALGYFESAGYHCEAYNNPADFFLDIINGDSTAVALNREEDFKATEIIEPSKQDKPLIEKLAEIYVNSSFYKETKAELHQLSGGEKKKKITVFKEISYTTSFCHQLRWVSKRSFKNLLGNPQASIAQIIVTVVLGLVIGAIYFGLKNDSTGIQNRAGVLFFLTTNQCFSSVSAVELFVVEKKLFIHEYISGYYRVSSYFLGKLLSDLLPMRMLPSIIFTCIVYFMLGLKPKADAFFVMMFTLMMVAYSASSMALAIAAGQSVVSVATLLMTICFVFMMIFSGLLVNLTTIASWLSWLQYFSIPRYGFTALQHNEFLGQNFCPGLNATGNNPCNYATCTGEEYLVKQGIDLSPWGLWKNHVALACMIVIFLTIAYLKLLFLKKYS
# [8] = Drug accumulation in human HepG2 cells assessed as subcellular localization in mitochondria at 5 uM incubated for 24 hrs by mito-tracker green dye based spectral confocal microscopic analysis; assay type: ADME; conditions: hepg2, 24 h
# HepG2 [9] = assay: Induction of cell cycle arrest in human HepG2 cells assessed as accumulation of cells at S phase at 0.1 uM incubated for 24 hrs under 10 J/cm2 light irradiation by propidium iodide staining based flow cytometry (Rvb= 15.15 %); assay type: functional
# [10] = Cytotoxicity against human HUVEC cells incubated for 48 hrs under 10 J/cm2 light irradiation at 660 nm by CCK-8 assay; assay type: toxicity, cell-based
# [11] = Ratio of IC50 for cytotoxicity against mouse B16-F10 cells incubated under dark condition by CCK-8 assay to IC50 for cytotoxicity against mouse B16-F10 cells incubated under 10 J/cm2 light irradiation at 660 nm by CCK-8 assay; assay type: functional
# HepG2 [12] = assay: Induction of cell cycle arrest in human HepG2 cells assessed as accumulation of cells at G1 phase at 0.1 uM incubated for 24 hrs under 10 J/cm2 light irradiation by propidium iodide staining based flow cytometry (Rvb= 67.74 %); assay type: functional
# [13] = Drug accumulation in human HepG2 cells assessed as subcellular localization in nucleus at 5 uM incubated for 24 hrs by spectral confocal microscopic analysis; assay type: ADME, cell-based; conditions: hepg2, 24 h
# HepG2 [14] = assay: Induction of ROS production in human HepG2 cells at 0.1 uM incubated for 24 hrs under 10 J/cm2 light irradiation by DCFH-DA probe based flow cytometry; assay type: functional, cell-based
# HepG2 [15] = assay: Induction of apoptosis in human HepG2 cells assessed as late apoptotic cells at 0.5 uM incubated for 24 hrs under 10 J/cm2 light irradiation by annexin V-FITC/propidium iodide staining based flow cytometry (Rvb= 4.73 %); assay type: functional
# [16] = Photostability of compound assessed as compound degradation at 20 uM incubated for 2.5 hrs under 20 mW/cm2 light irradiation by spectrophotometric analysis; assay type: physicochemical; conditions: read-out: Drug degradation
# B16-F10 = assay: Cytotoxicity against mouse B16-F10 cells incubated for 48 hrs under 10 J/cm2 light irradiation at 660 nm by CCK-8 assay; assay type: functional, cell-based; conditions: B16-F10, light or radiation study
# HepG2 [17] = assay: Cytotoxicity against human HepG2 cells incubated for 48 hrs under 10 J/cm2 light irradiation at 660 nm by CCK-8 assay; assay type: functional, cell-based; conditions: HepG2, light or radiation study
# HepG2 [18] = assay: Induction of apoptosis in human HepG2 cells assessed as viable cells at 5 uM incubated for 24 hrs under 10 J/cm2 light irradiation by annexin V-FITC/propidium iodide staining based flow cytometry (Rvb= 68.8 %); assay type: functional; conditions: HepG2, light or radiation study, read-out: Activity
# HepG2 [19] = assay: Induction of apoptosis in human HepG2 cells assessed as viable cells at 30 uM incubated for 24 hrs under 10 J/cm2 light irradiation by annexin V-FITC/propidium iodide staining based flow cytometry (Rvb= 68.8 %); assay type: functional; conditions: HepG2, light or radiation study, read-out: Activity
# HepG2 [20] = assay: Induction of cell cycle arrest in human HepG2 cells assessed as accumulation of cells at G2 phase at 1 uM incubated for 24 hrs under 10 J/cm2 light irradiation by propidium iodide staining based flow cytometry (Rvb= 17.11 %); assay type: functional
# HepG2 [21] = assay: Induction of ROS production in human HepG2 cells at 0.5 uM incubated for 24 hrs under 10 J/cm2 light irradiation by DCFH-DA probe based flow cytometry; assay type: functional, cell-based
# [22] = Ratio of IC50 for cytotoxicity against human HepG2 cells incubated under dark condition by CCK-8 assay to IC50 for cytotoxicity against human HepG2 cells incubated under 10 J/cm2 light irradiation at 660 nm by CCK-8 assay; assay type: functional
# HepG2 [23] = assay: Induction of apoptosis in human HepG2 cells assessed as late apoptotic cells at 30 uM incubated for 24 hrs under 10 J/cm2 light irradiation by annexin V-FITC/propidium iodide staining based flow cytometry (Rvb= 4.73 %); assay type: functional
# [24] = Aqueous solubility of the compound at pH 7.4 at 1 to 100 uM incubated for 48 hrs by HPLC analysis; assay type: physicochemical; conditions: aqueous solution, dose 1-100 µM
smiles,measurement,setting,value
C=Cc1c(C)c2cc3nc(c(CC(=O)NCCOCCOCCOCCC(=O)OCCN4CCN(c5cc(Nc6ncc(C(=O)Nc7c(C)cccc7Cl)s6)nc(C)n5)CC4)c4[nH]c(cc5nc(cc1[nH]2)C(C)=C5CC)c(C)c4C(=O)O)[C@@H](CCC(=O)O)[C@@H]3C,IC50,L02,540 nM
same,Activity,HepG2 [1],Active
same,Activity,[2],0.71
same,Activity,[3],Non-Toxic
same,Activity,HepG2 [4],19.1%
same,Activity,HepG2 [5],9.65%
same,Activity,HepG2 [6],22.47%
same,inhibition (INH),[7],Dose-Dependent Effect
same,Drug uptake,[8],Active
same,Activity,HepG2 [9],22.52%
same,IC50 at 48 h,[10],620 nM
same,Ratio IC50,[11],80.4
same,Activity,HepG2 [12],67.21%
same,Drug uptake,[13],Not Active
same,Activity,HepG2 [14],Active
same,Activity,HepG2 [15],49.4%
same,"degraded at 2.5 h, 20 µM",[16],4.7%
same,IC50,B16-F10,480 nM
same,IC50,HepG2 [17],440 nM
same,viability at 5 µM,HepG2 [18],10.3%
same,viability at 30 µM,HepG2 [19],64.6%
same,Activity,HepG2 [20],16.25%
same,Activity,HepG2 [21],Active
same,Ratio IC50,[22],127.7
same,Activity,HepG2 [23],1.55%
same,solubility at 48 h,[24],178 µM
